Data from patent US10155047B2, “Polymers having therapeutically active agents conjugated thereto, processes of preparing same and uses thereof” (Ramot at Tel-Aviv University Ltd., priority 2012, dated 2018).
Ends that are not written are not given here. PGA = not defined here

How the values were obtained:
HUVECs = experiment: HUVEC proliferation assay (MTT, 72 hours); type: cell-based, human
Method: Human umbilical vein endothelial cells (HUVECs) were isolated from umbilical cords and were cultured in EGM-2 media.
(§1) After incubation cell viability was determined by MTT assay.
(§2) For evaluating anti-proliferative activity of a combination of PTX and DOX, cells were treated with varying concentrations of DOX with a set concentration of PTX or varying concentrations of PTX with a set concentration of DOX.
Same procedure was followed for other drugs and combination treatments.
(§3) In an exemplary procedure, selected inhibition concentration values (e.g., IC40, IC60 and IC80) of PTX, DOX and combinations thereof from a respective cell proliferation assay were collected. The selected inhibition concentration values of DOX and PTX were marked on X and Y axes respectively and a line which represents additive effect was drawn between each inhibitory concentration (IC). The combination index (CI) of each treatment was calculated according to the classic isobologram equation CI=[(D)1/(Dx)1]+[(D)2/(Dx)2].
The effect of PTX at various concentrations (0.0001, 0.001, 0.01, 0.1, 1, 10, 100, 1000, and 10,000 nM), and of doxorubicin at various concentrations (0.001, 0.001, 0.01, 0.1, 1, 10, 100, 1000, 10,000, 100,000 nM) on the proliferation of HUVEC p3 cells was tested. The obtained data is presented in FIG. 1A for PTX and in FIG. 1B for DOX.
For evaluating the effect of the combination treatment, 0.1 or 1 nM DOX with various concentrations of PTX and 0.1 or 1 nM PTX with various concentrations of DOX were tested.
The effect of PTX at various concentrations, TNP-470 at various concentrations and of various combinations of a set concentration of PTX and variable concentrations of TNP-470 and a set concentration of TNP-470 and variable concentrations of PTX, on proliferation of HUVECs, was tested. Similar assays were performed in the presence of 10,000 nM alendronate. The obtained data is presented in FIG. 7A (no alendronate) and in FIG. 7B (in the presence of alendronate).
The effect of the PGA-PTX-DOX conjugate (Route 1, see, FIG. 18) on HUVECs proliferation was tested and compared to the free drugs, each alone and in combination.

MDA-MB-231 cells [1] = experiment: Internalization and intracellular release of DOX, confocal microscopy; type: cell-based, human; details: 400 nM DOX-equivalent
Method: Internalization and intracellular release of DOX from the conjugates was evaluated by confocal microscopy (Leica SP5). MDA-MB-231 cells were incubated with free DOX and DOX-containing conjugates (PGA-DOX, PGA-PTX-DOX) at 400 nM equivalent concentrations for 20 minutes, 2, 6 or 24 hours. Following incubation, cells were washed, fixed with 4% PFA and mounted on glass slides using Prolong® Gold antifade reagent with DAPI (4′-6-Diamidino-2-phenylindole) (Invitrogen) for nucleus. DOX was excited at 488 nm and its emission was recorded at 550-700 nm.

MDA-MB-231 cells [2] = experiment: MDA-MB-231 cell proliferation assay (72 hours); type: cell-based, human; details: for IC20 / IC 40 / IC 60: MDA-MB-231, single drug
Method: Human MDA-MB-231 cells were purchased from American Tissue Culture Collection (ATCC), and were cultured in DMEM supplemented with 10% FBS, 100 μg/ml penicillin, 100 U/ml streptomycin, 12.5 U/ml nystatin. All Cells were grown at 37° C., 5% CO2.
(§4) In an exemplary procedure, cells were plated onto 96-well plates in appropriate complete medium for each cell line as described above, and incubated for 24 hours (37° C.; 5% CO2). On the following day cells were treated with e.g., paclitaxel at various concentrations (e.g., 0.0001, 0.001, 0.01, 0.1, 1, 10, 100, 1000, 10,000 nM) or, e.g., doxorubicin at various concentrations (e.g., 0.001, 0.001, 0.01, 0.1, 1, 10, 100, 1000, 10,000, 100,000 nM) for 72 hours. After incubation cell viability was determined by MTT assay.
as §2
Selected inhibition concentration values (e.g., IC50, IC40, IC60 and IC80 values (growth inhibition by 50, 40, 60 and 80% respectively) were derived from the obtained growth charts.
as §3
The effect of PTX, DOX and combinations thereof on the proliferation of human MDA-MB-231 cells was tested.
FIG. 6A presents the results obtained for PTX and DOX, each alone, at various concentrations within a range of 0.01-10000 nM, and for various concentrations of PTX with 20 nM DOX, and for various concentrations of DOX with 1 nM PTX. […] Data represents mean±SD.
In order to evaluate the combination treatment effect, data from combination treatment results were collected, analyzed and calculated according to CI equations. Combination treatments I (PTX+DOX 20 nM) and II (DOX+PTX 1 nM) inhibited MDA-MB-231 cells proliferation of IC 20, 40, 60 at 0.8, 4, 25 and 4, 150, 700 nM respectively.
The activity of a PGA-PTX-DOX conjugate (Route 2, see, FIG. 19D) was examined in vitro on proliferation of MDA-MB-231 human breast cancer cells. Cells were incubated with the conjugates PGA-PTX-DOX, PGA-PTX, PGA-DOX and combination of PGA-PTX and PGA-DOX (in the same ratio as on the PGA-PTX-DOX conjugate), the free drugs PTX, DOX and their combination (in the same ratio as on the PGA-PTX-DOX conjugate) and with PGA for 72 hours.

[3] = system: ES-2 ovarian carcinoma cells; experiment: ES-2 cell proliferation assay (72 hours); type: cell-based, human
Method: ES-2 human ovarian carcinoma cells were purchased from the ATCC.
as §1, §3
The effect of DOX and PTX combinations on viability of ES2 and Saos2 cells was examined. Cells were treated with PTX alone, DOX alone, varying concentrations of DOX with a set concentration of PTX (10 or 50 nM for ES2, 1 nM for Saos2) or varying concentrations of PTX with a set concentration of DOX (10 or 50 nM). IC20, IC40 and IC60 values (growth inhibition by 20, 40 and 60% respectively) were derived from the growth charts and combination index (CI) values were calculated.
The activity of PGA-PTX-DOX conjugate (Route 1, see, FIG. 18) and of PGA-PTX-DOX conjugate (Route 2, see, FIG. 19D) was examined in vitro on proliferation of ES-2 ovarian carcinoma cells.
(§5) The effect of DOX and PTX treatments on proliferation of ES2 and SK N MC cells after sorting to NCAM+/− and/or on unsorted cells was examined, to test whether NCAM+ cells are more resistant to chemotherapeutic drugs.

SK N MC cells = experiment: SK N MC cell proliferation assay after sorting to NCAM+/-; type: cell-based
Method: as §4
Cells were harvested and labeled as described above, and resuspended in the appropriate cell culture medium (according to cell type) with 5% FBS. Cells were filtrated with 100 μm cell strainer before sorting. Sorted cells were collected into tubes containing complete medium with 0.5 mg/ml gentamycin (Biological Industries, Israel). All work was done in sterile conditions.
as §5

ES2 cells = experiment: Binding to ES2 cells (FACS); type: cell-based, human
Method: Cells were washed with PBS, harvested using a cell scraper and labeled by incubation with APC-conjugated CD-56 antibody (Biolegend) for 45 min at 4° C. in the dark. Cells were washed three times with PBS and filtrated with 100 μm cell strainer (BD Falcon).
Binding of C3 (SEQ ID NO:3) to ES2 cells, and competition of binding of the NCAM-specific antibody APC-conjugated anti-human CD56 (NCAM) (BioLegend) and bFGF was examined by FACS.
PGA and PGA-C3 were labeled with FITC on the N-terminal of the PGA chain. Binding to ES-2 cells was examined by FACS.

[4] = system: NCAM-expressing Mel-526 human melanoma cells; experiment: Binding to NCAM-expressing Mel-526 cells; type: cell-based
Saos-2 cells = experiment: NTP binding to Saos2 cells (confocal microscopy); type: cell-based, human; details: fluorescently labeled peptides
Method: Cell specificity and uptake of the fluorescently labeled peptides was monitored utilizing a Zeiss Meta LSM 510 confocal imaging system. Cells were plated on glass slides and incubated overnight. The following day cells were incubated with 100 μM of CF-NTP or CF-scrambled peptide for 30 minutes at 37° C., washed several times with PBS, fixated with 4% paraformaldehyde, stained with Hoechst stain and mounted on slides. In order to examine intracellular trafficking of the peptide, cells were incubated with the peptides in serum free medium, washed several times with cold PBS and incubated with […] AlexaFluor 594 human transferrin for 1 h at 37° C. Cells were washed several times with PBS, fixated with 4% PFA, stained with Hoechst stain and mounted on slides.
Binding of NTP (SEQ ID NO:1) to Saos-2 cells, compared to binding of sNTP (SEQ ID NO:2), was examined by confocal microscopy. FITC-labeled targeting peptides were used. […] In experiments with transferrin, peptide was seen as intracellular aggregates or vesicles, though not colocalized with transferrin.

## COc1cccc2c1C(=O)c1c(O)c3c(c(O)c1C2=O)C[C@@](O)(C(=O)CO)C[C@@H]3O[C@H]1C[C@H](N)[C@H](O)[C@H](C)O1 [DOX, doxorubicin]
HUVECs; HUVEC p3, PGA-PTX-DOX is the Route 1 conjugate (FIG. 18)
  IC50: 7 nM
HUVECs; HUVEC proliferation, drug alone or varied with a set concentration of the other drug
  IC50: 40 nM
MDA-MB-231 cells [1]
  cell internalization: rapidly internalized in the cells
  incubation time after which DOX is accumulated in the nucleus: 6 h
MDA-MB-231 cells [2]
  IC20: 60 nM
  IC 40: 250 nM
  IC 60: 950 nM
[3]; ES2 cells sorted NCAM+
  IC50: 300 nM
[3]; ES2 cells sorted NCAM−
  IC50: 150 nM
[3]; ES2 cells unsorted
  IC50: 250 nM
[3]; ES-2, 72 hours, conjugates of Route 2 (FIG. 19D), three separate experiments
  IC50: 25 nM
SK N MC cells; SK N MC cells sorted NCAM+
  IC50: 90 nM
SK N MC cells; SK N MC cells sorted NCAM−
  IC50: 40 nM
SK N MC cells; SK N MC cells unsorted
  IC50: 50 nM

## CC(=O)O[C@H]1C(=O)[C@@]2(C)[C@H]([C@H](OC(=O)c3ccccc3)[C@]3(O)C[C@H](OC(=O)[C@H](O)[C@@H](NC(=O)c4ccccc4)c4ccccc4)C(C)=C1C3(C)C)[C@]1(OC(C)=O)CO[C@@H]1C[C@@H]2O [PTX, Paclitaxel]
HUVECs; Homo sapiens, HUVEC, HUVEC p3, PGA-PTX-DOX is the Route 1 conjugate (FIG. 18)
  IC50: 1 nM
HUVECs; Homo sapiens, HUVEC, HUVEC proliferation, drug alone or varied with a set concentration of the other drug
  IC50: 7 nM
MDA-MB-231 cells [2]; Homo sapiens, MDA-MB-231, 72 hours, PTX- and DOX-equivalent concentrations, Route 2 conjugate (FIG. 19D)
  IC50: 2 nM
MDA-MB-231 cells [2]; Homo sapiens
  IC20: 2.5 nM
MDA-MB-231 cells [2]
  IC 40: 7 nM
  IC 60: 100 nM
[3]; Homo sapiens, ES-2, ES2 cells sorted NCAM+
  IC50: 70 nM
[3]; Homo sapiens, ES-2, ES2 cells sorted NCAM−
  IC50: 90 nM
[3]; Homo sapiens, ES-2, ES2 cells unsorted
  IC50: 70 nM
[3]; Homo sapiens, Ovarian carcinoma cell, 72 h, ES-2, 72 hours, conjugates of Route 2 (FIG. 19D), three separate experiments
  IC50: 6 nM
SK N MC cells; Homo sapiens, SK N MC cells unsorted
  IC50: 45 nM

## CF-labeled C3: C3 (SEQ ID NO:3) labeled at the N-terminal with 5(6)-carboxyfluorescein ({5(6)‑carboxyfluorescein}-GASKKPKRNIKA)
ES2 cells; ES2, CF-labeled peptide alone
  binding to cells: bound at levels much higher than NCAM expression
ES2 cells; ES2, competition
  binding when incubated with NCAM antibody or bFGF: its binding decreased

## GASKKPAANIKA [C3ala, control peptide]
[4]
  binding: 20%

## GASKKPKRNIKA [C3, NCAM targeting peptide C3 with added N-terminal glycine]
[4]
  binding: 50%

## GDDSDEEN [NTP, NCAM-targeting peptide]
Saos-2 cells
  binding to cells: binds to the cells

## GESDDEND [scrambled peptide]
Saos-2 cells
  binding to cells: does not

## PGA-C3: PGA conjugated to C3 peptide (SEQ ID NO:3) through the N-terminal amine ({PGA}-GASKKPKRNIKA; reading uncertain)
ES2 cells; ES-2, FITC-labeled polymers
  binding to cells: bound more strongly than non-targeted PGA and similarly to free C3 peptide
